Measurements published in US20240382437A1, “TREATMENT OF ACUTE TISSUE INJURY” (OBVIA PHARMACEUTICALS LTD., priority 2021, published 2024).

Legend:
[1] = system: caspase 3,7; experiment: Activated caspase 3,7 activity in post-transplant kidney supernatant, measured enzymatically; format: in vivo, rat; details: 20 hr after transplant; PrC-210 in UW Solution plus systemic doses; 60 min reaction; FIG. 5
Description: Kidney supernatant activated caspase 3,7 activity was measured enzymatically in a 60 min reaction.
(§1) To determine PrC-210 efficacy in suppressing inflammation-generated damage to a transplanted, allograft organ, we used an allograft rat kidney transplant model that largely eliminated the induction of the ischemia and reperfusion insults in transplant, and created only the third inflammation insult by allograft transplanting a kidney from a Brown strain (BN) rat into a recipient Lewis strain (LEW) rat (FIG. 1). PrC-210 was administered both pre-and post-implantation to determine its protective effect in suppressing any inflammation-associated damage to the transplanted BN kidney in the LEW rat. Brown Rat kidneys were flushed with UW solution containing PrC-210 and immediately transplanted into syngeneic Lewis Rat recipients. Ischemic time was virtually eliminated. Immediately following implant, and for 8 hr following kidney implant, recipient rats received systemic PrC-210 injections at doses that would enable continuous free radical-scavenging within the transplanted kidney. Transplanted kidneys and blood plasma were then harvested 20 hr following transplant to enable measurement of both PrC-210-conferred i) suppression of inflammatory by-products and ii) kidney protection.

[2] = system: Caspase 1; experiment: Caspase 1 in plasma of ICR mice after lethal radiation; format: in vivo; details: PrC-210 given before or after lethal radiation with 8.68 Gy, FIG. 8
Excerpt: Caspase 1 is a central activator of acute inflammation in neutrophilic cells, which recruits both T-cells and monocytes and activates apoptosis.

[3] = in vivo; cited from earlier work
[4] = system: TIMP-1; experiment: TIMP-1 ELISA of serum and kidney homogenate 20 hr after transplant; format: in vivo, rat; details: 20 hr post-transplant, kidney homogenates and sera, FIG. 6
Description: (§2) TIMP-1, TNF-alpha and MIP-3A/CCL20 levels were determined by ELISA analysis. P values are indicated.
as §1, with “Immediately following implant, and for 8 hr following kidney implant, recipient rats received systemic PrC-210 injections at doses that would enable continuous free radical-scavenging within the transplanted kidney. Transplanted kidneys and blood plasma were then harvested 20 hr following transplant to enable measurement of both PrC-210-conferred i) suppression of inflammatory by-products and ii) kidney protection.” left out
(§3) In screening experiments, kidney homogenate supernates from 0 hr controls and 20 hr no treatment kidneys were screened with the Proteome Profiler 29 cytokine array to detect altered, inflammation-associated, cytokine and chemokine expression levels 20 hr post-transplant. […] Individual ELISA plates were then used to quantify these changes in kidney homogenates and sera, now including rats treated with PrC-210 as well. […]

[5] = system: MIP-3a/CCL20; experiment: MIP-3a/CCL20 ELISA 20 hr after transplant; format: in vivo, rat; details: 20 hr post-transplant, FIG. 6D
Description: as §2
as §1, with “Immediately following implant, and for 8 hr following kidney implant, recipient rats received systemic PrC-210 injections at doses that would enable continuous free radical-scavenging within the transplanted kidney. Transplanted kidneys and blood plasma were then harvested 20 hr following transplant to enable measurement of both PrC-210-conferred i) suppression of inflammatory by-products and ii) kidney protection.” left out
as §3

[6] = system: kidney; details: rodent kidney transplant study; cited from earlier work
[7] = system: transplanted BN kidney; experiment: Histology of transplanted BN kidneys 20 hr after allograft transplant into LEW rats; format: in vivo, rat; details: 20 hr post-transplant
Description: LT (left), RT (right), MTD (Maximum Tolerated Dose), IP (intraperitoneal).
(B,C,D) BN kidneys 20 hr following transplant into LEW rats. “20 hr” control kidneys (B,C) were flushed with room temperature UW Solution prior to transplant, and +PrC-210 kidneys (D) were flushed with room temperature UW Solution containing 30 mM PrC-210 prior to transplant, and recipient LEW rat also received three intraperitoneal systemic PrC-210 doses in the eight hours following transplant. Panel B red arrows highlight tubulitis pathology, and Panel C yellow arrows highlight peritubular capillaritis pathology.
Operator randomly collected sample images of renal tubules from each of the indicated kidney groups in panels A,B,C. Then, using an ImageJ macro, H/E images (e.g., FIG. 3 panels A-C) were analyzed, and above-threshold pink or blue pixels were selected and enumerated, and their ratio was then calculated and plotted to provide an estimate of kidney white blood cell infiltration.
as §1
The same blinded histology sections were examined for mononuclear white cell infiltration.

[8] = system: TNF-alpha; experiment: TNF-alpha ELISA of serum and kidney homogenate 20 hr after transplant; format: in vivo, rat; details: 20 hr post-transplant, kidney homogenates and sera, FIG. 6
Description: as §2
as §1, with “Immediately following implant, and for 8 hr following kidney implant, recipient rats received systemic PrC-210 injections at doses that would enable continuous free radical-scavenging within the transplanted kidney. Transplanted kidneys and blood plasma were then harvested 20 hr following transplant to enable measurement of both PrC-210-conferred i) suppression of inflammatory by-products and ii) kidney protection.” left out
as §3

[9] = system: BN allograft kidneys; experiment: Kidney function (serum creatinine and serum BUN) 20 hr after transplant of the BN kidney into a LEW rat; format: in vivo; details: three IP PrC-210 injections
Excerpt: Rats either received no PrC-210 (“20 Hr”) or three IP PrC-210 injections in the 20 hr period following transplant (“20 Hr +PrC-210”), before recipient rat was euthanized and serum was collected. P values are indicated. To determine PrC-210 efficacy in suppressing inflammation-generated damage to a transplanted, allograft organ, we used an allograft rat kidney transplant model that largely eliminated the induction of the ischemia and reperfusion insults in transplant, and created only the third inflammation insult by allograft transplanting a kidney from a Brown strain (BN) rat into a recipient Lewis strain (LEW) rat (FIG. 1). PrC-210 was administered both pre-and post-implantation to determine its protective effect in suppressing any inflammation-associated damage to the transplanted BN kidney in the LEW rat. Brown Rat kidneys were flushed with UW solution containing PrC-210 and immediately transplanted into syngeneic Lewis Rat recipients. Ischemic time was virtually eliminated. Immediately following implant, and for 8 hr following kidney implant, recipient rats received systemic PrC-210 injections at doses that would enable continuous free radical-scavenging within the transplanted kidney. […] Serum creatinine and serum BUN were also measured to assess function in the BN allograft kidneys 20 hr after transplant (FIG. 4).

[10] = system: kidney; details: rodent kidney transplant study; cited from earlier work; remark: listed apart in the source
[11] = system: Caspase 8; experiment: Caspase 8 in brains of ICR mice after lethal radiation; format: in vivo
Excerpt: Caspase 8 inhibition (FIG. 9) in the brain after acute injury, such as radiation, is support for less TNF-α activation, and TRL—and FAS receptor upregulation in the brain. […] This supports that inflammation, such as activation of microglia is normalized after PrC-210.

SMILES: CNCC(CS)CNC [PrC-210, 3-(methylamino)-2-(methylaminomethyl) propane-1-thiol]
- activated caspase activity in BN kidney homogenates [1]: same activated caspase activity to that seen in “O hr” control kidneys
- Caspase 1 in plasma [2]: 6-day suppression
- hypotension side effects [3]: no measurable
- nausea/emesis side effects [3]: no measurable
- TIMP-1 levels [4]: decreased
- MIP-3a/CCL20 levels [5]: increased significantly higher
- free-radical-induced kidney damage induced during 30 hr cold storage [6]: to background levels
- integrity of the renal tubule brush border epithelium (histology) ([7]; PrC-210 via perfusing UW Solution and intraperitoneal injections, FIG. 3): preserved integrity of the renal tubular brush border
- Inflammatory Infiltration Score ([7]; compared with 0 hr control group, FIG. 3, D): statistically the same as the 0 hr control group
- Banff scores for tubulitis and peritubular capillaritis ([7]; kidney perfused with PrC-210-containing UW Solution (30 mM) plus three post-implant intraperitoneal doses, FIG. 2): equal to Banff scores of the “0 Hr” control BN group
- mononuclear white cell infiltration (blue pixels) ([7]; versus the untreated BN kidneys, P=0.011, FIG. 3): significantly suppressed
- TNF-alpha levels [8]: decreased
- serum creatinine ([9]; P=0.032, FIG. 4): significant reductions
- serum BUN ([9]; P=0.046, FIG. 4): significant reductions
- free-radical-induced kidney damage induced during reperfusion injury upon implant [10]: to background levels
- duration of the effect on Caspase 8 ([11]; ICR mice brain, lethal radiation with 8.68 Gy): at least six days
- Caspase 8 in the brain ([11]; ICR mice, PrC-210 given before lethal radiation with 8.68 Gy, FIG. 9): inhibition
